For 27 compounds, IC50 results are on record in patent US20120122924A1, “NAMPT INHIBITORS” (ABBOTT LABORATORIES, priority 2010, published 2012).

A word on the IC50: it is the concentration at which inhibition is half-maximal.

The structures appear in SMILES notation.

Sequence of recombinant, human, C-terminally-His tagged NAMPT (P43490 whole entry): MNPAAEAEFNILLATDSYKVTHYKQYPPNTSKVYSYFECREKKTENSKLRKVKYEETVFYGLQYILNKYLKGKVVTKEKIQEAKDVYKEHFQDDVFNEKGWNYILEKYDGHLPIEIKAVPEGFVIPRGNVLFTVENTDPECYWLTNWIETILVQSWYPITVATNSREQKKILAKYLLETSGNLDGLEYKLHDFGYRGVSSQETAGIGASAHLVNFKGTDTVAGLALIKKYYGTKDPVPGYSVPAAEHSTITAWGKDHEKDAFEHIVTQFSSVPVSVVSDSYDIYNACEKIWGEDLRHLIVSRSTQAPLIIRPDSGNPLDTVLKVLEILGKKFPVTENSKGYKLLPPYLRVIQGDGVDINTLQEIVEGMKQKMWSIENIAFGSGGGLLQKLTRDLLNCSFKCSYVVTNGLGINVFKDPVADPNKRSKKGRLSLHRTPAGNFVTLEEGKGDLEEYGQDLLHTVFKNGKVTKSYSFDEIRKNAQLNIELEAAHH

The target of this assay is recombinant, human, C-terminally-His tagged NAMPT (Homo sapiens, UniProt P43490). The experiment in a line: Time-Resolved Fluorescence Resonance Energy Transfer (TR-FRET) binding assay of NAMPT. Conditions: 6.8 nM NAMPT, 200 nM probe (Oregon Green 488-conjugated APO866), 1 nM Tb-anti-His antibody, 2-3 hours. As to the method:
Determination of the utility of compounds having Formula (I) as binders to and inhibitors of NAMPT was performed using a Time-Resolved Fluorescence Resonance Energy Transfer (TR-FRET) binding assay.
Time-Resolved Fluorescence Resonance Energy Transfer (TR-FRET) Binding Assay of NAMPT
The assay was carried out in 18 uL low volume plates (Owens Corning) in reaction buffer (50 mM HEPES (NaOH), pH 7.5, 100 mM NaCl, 10 mM MgCl2, 1 mM DTT, 1% Glycerol) using 6.8 nM recombinant, human, C-terminally-His tagged NAMPT, 1 nM Tb-anti-His antibody (Invitrogen, Cat # PV5895), and 200 nM probe (Oregon Green 488-conjugated APO866; A-1251667.0). Plates were covered, and reactions were carried out for 2-3 hours. Plates were read with Envision (Laser Lantha low volume protocol) after 2 to 3 hours. Excitation was carried out at 337 nm, and the ratio of emission of Oregon Green (520 nm) to terbium (492 nm) was determined and used to calculate IC50 values of test compounds.
In general terms: In TR-FRET formats the signal depends on donor and acceptor labels being close together.
For `O=C(NCCCc1ccccc1)c1ccc(NC(=O)N2CCc3ccc(F)cc3C2)cc1` [Example 20, 7-fluoro-N-{4-[(3-phenylpropyl)carbamoyl]phenyl}-3,4-dihydroisoquinoline-2(1H)-carboxamide], the IC50 was found to be 248 nM.

Regarding `CC(C)CCNC(=O)c1ccc(NC(=O)N2CCc3ccc(F)cc3C2)cc1` [Example 16, 7-fluoro-N-{4-[(3-methylbutyl)carbamoyl]phenyl}-3,4-dihydroisoquinoline-2(1H)-carboxamide], the IC50 was found to be 171 nM.

Consider `O=C(CCc1cccs1)Nc1ccc(NC(=O)N2CCc3ccccc3C2)cc1` [Example 33, N-(4-{[3-(2-thienyl)propanoyl]amino}phenyl)-3,4-dihydroisoquinoline-2(1H)-carboxamide], for which the IC50 worked out at 40.4 nM.

Take `O=C(Nc1ccc(C(=O)N2CCN(c3ccccn3)CC2)cc1)N1CCc2ccccc2C1` [Example 2, N-(4-{[4-(pyridin-2-yl)piperazin-1-yl]carbonyl}phenyl)-3,4-dihydroisoquinoline-2(1H)-carboxamide]: the 50% inhibitory concentration (IC50) worked out at 13.2 nM.

`CS(=O)(=O)Nc1cccc2c1CCN(C(=O)Nc1ccc(NC(=O)CC3CCCC3)cc1)C2` [Example 98, N-{4-[(cyclopentylacetyl)amino]phenyl}-5-[(methylsulfonyl)amino]-3,4-dihydroisoquinoline-2(1H)-carboxamide]: the IC50 is 3 nM.

As to `O=C(Nc1ccc(NC(=O)N2CCc3ccccc3C2)cc1)c1ccsc1` [Example 85, N-{4-[(3-thienylcarbonyl)amino]phenyl}-3,4-dihydroisoquinoline-2(1H)-carboxamide], the IC50 was 242 nM.

In the case of `O=C(Nc1ccc(NC(=O)N2CCc3ccccc3C2)cc1)c1ccccc1` [Example 80, N-[4-(benzoylamino)phenyl]-3,4-dihydroisoquinoline-2(1H)-carboxamide], the IC50 came to 191 nM.

Turning to `CC(C)CS(=O)(=O)N1CC=C(c2ccc(NC(=O)N3CCc4ccccc4C3)cc2)CC1` [Example 51, N-{4-[1-(isobutylsulfonyl)-1,2,3,6-tetrahydropyridin-4-yl]phenyl}-3,4-dihydroisoquinoline-2(1H)-carboxamide], the IC50 worked out at 74.9 nM.

Take `CN(C)CCC(=O)Nc1ccc(NC(=O)N2CCc3ccccc3C2)cc1` [Example 92, N-{4-[(N,N-dimethyl-beta-alanyl)amino]phenyl}-3,4-dihydroisoquinoline-2(1H)-carboxamide]: the IC50 was 5840 nM.

For the compound `O=C(Nc1ccc(NC(=O)N2CCc3ccccc3C2)cc1)c1ccno1` [Example 90, N-{4-[(1,2-oxazol-5-ylcarbonyl)amino]phenyl}-3,4-dihydroisoquinoline-2(1H)-carboxamide], the IC50 came out at 314 nM.

For `O=C(Nc1ccc(/C=C/CCCc2ccccc2)cc1)N1CCc2ccccc2C1` [Example 39, N-{4-[(1E)-5-phenylpent-1-en-1-yl]phenyl}-3,4-dihydroisoquinoline-2(1H)-carboxamide], the IC50 was 611 nM.

As to `CC(C)CCn1cc(-c2ccc(NC(=O)N3CCc4ccccc4C3)cc2)cn1` [Example 37, N-{4-[1-(3-methylbutyl)-1H-pyrazol-4-yl]phenyl}-3,4-dihydroisoquinoline-2(1H)-carboxamide], the IC50 stood at 298 nM.

Regarding `O=C(CCS(=O)(=O)c1ccccc1)Nc1ccc(NC(=O)N2CCc3ccccc3C2)cc1` [Example 67, N-(4-{[3-(phenylsulfonyl)propanoyl]amino}phenyl)-3,4-dihydroisoquinoline-2(1H)-carboxamide], the IC50 amounted to 16.7 nM.

In the case of `O=C(Cc1ccccn1)Nc1ccc(NC(=O)N2CCc3ccccc3C2)cc1` [Example 91, N-{4-[(pyridin-2-ylacetyl)amino]phenyl}-3,4-dihydroisoquinoline-2(1H)-carboxamide], the IC50 was 16 nM.

On to `O=C(Cc1ccc(NC(=O)N2CCc3ccccc3C2)cc1)NCCc1cccs1` [Example 26, N-[4-(2-oxo-2-{[2-(2-thienyl)ethyl]amino}ethyl)phenyl]-3,4-dihydroisoquinoline-2(1H)-carboxamide], for which the IC50 amounted to 800 nM.

With `CC(C)CC(=O)N1CC=C(c2ccc(NC(=O)N3CCc4ccccc4C3)cc2)CC1` [Example 47, N-{4-[1-(3-methylbutanoyl)-1,2,3,6-tetrahydropyridin-4-yl]phenyl}-3,4-dihydroisoquinoline-2(1H)-carboxamide], the IC50 turned out to be 20.2 nM.

Take `O=C(Nc1cnn(Cc2ccccc2)c1)c1ccc(NC(=O)N2CCc3ccccc3C2)cc1` [Example 14, N-{4-[(1-benzyl-1H-pyrazol-4-yl)carbamoyl]phenyl}-3,4-dihydroisoquinoline-2(1H)-carboxamide]: the IC50 amounted to 47.1 nM.

Turning to `CC(C)(C)OC(=O)N1CC=C(c2ccc(NC(=O)N3CCc4ccccc4C3)cc2)CC1` [Example 49, tert-butyl 4-{4-[(3,4-dihydroisoquinolin-2(1H)-ylcarbonyl)amino]phenyl}-3,6-dihydropyridine-1(2H)-carboxylate], the IC50 is 48.7 nM.

`O=C(Nc1ccc(NC(=O)N2CCc3ccccc3C2)cc1)c1cn[nH]c1` [Example 89, N-{4-[(1H-pyrazol-4-ylcarbonyl)amino]phenyl}-3,4-dihydroisoquinoline-2(1H)-carboxamide]: the IC50 was determined as 203 nM.

Take `O=C(CCCc1ccccc1)Nc1ccc(NC(=O)N2CCc3ccccc3C2)cc1` [Example 32, N-{4-[(4-phenylbutanoyl)amino]phenyl}-3,4-dihydroisoquinoline-2(1H)-carboxamide]: the IC50 was 12 nM.

Take `CCCCCCNC(=O)N1CCc2ccccc2C1` [Example 59, N-hexyl-3,4-dihydroisoquinoline-2(1H)-carboxamide]: the half-inhibitory concentration (IC50) turned out to be 864 nM.

Regarding `CC(C)CCN1CC=C(c2ccc(NC(=O)N3CCc4ccccc4C3)cc2)CC1` [Example 55, N-{4-[1-(3-methylbutyl)-1,2,3,6-tetrahydropyridin-4-yl]phenyl}-3,4-dihydroisoquinoline-2(1H)-carboxamide], the IC50 turned out to be 435 nM.

As for `O=C(Nc1ccc(C2=CCN(C(=O)c3ccccc3)CC2)cc1)N1CCc2ccccc2C1` [Example 43, N-[4-(1-benzoyl-1,2,3,6-tetrahydropyridin-4-yl)phenyl]-3,4-dihydroisoquinoline-2(1H)-carboxamide], the IC50 was determined as 10.1 nM.

On to `CCCn1cc(-c2ccc(NC(=O)N3CCc4ccccc4C3)cc2)cn1` [Example 35, N-[4-(1-propyl-1H-pyrazol-4-yl)phenyl]-3,4-dihydroisoquinoline-2(1H)-carboxamide], for which the IC50 turned out to be 103 nM.

`CC(C)CCNC(=O)c1ccc(NC(=O)N2CCc3cc(F)ccc3C2)cc1` [Example 6, 6-fluoro-N-{4-[(3-methylbutyl)carbamoyl]phenyl}-3,4-dihydroisoquinoline-2(1H)-carboxamide]: the IC50 came to 10.3 nM.

Turning to `O=C(Cc1ccccc1)NCCc1ccc(NC(=O)N2CCc3ccccc3C2)cc1` [Example 61, N-(4-{2-[(phenylacetyl)amino]ethyl}phenyl)-3,4-dihydroisoquinoline-2(1H)-carboxamide], the IC50 is 1250 nM.

Take `O=C(Nc1ccc(C2=CCNCC2)cc1)N1CCc2ccccc2C1` [Example 54, N-[4-(1,2,3,6-tetrahydropyridin-4-yl)phenyl]-3,4-dihydroisoquinoline-2(1H)-carboxamide]: the IC50 came out at 289 nM.
